The values below are quoted from earlier work in USRE50805E1, “Single-layer oral dose of neuro-attenuating ketamine” (ACADIA Pharmaceuticals Inc., priority 2013, dated 2026).

The conditions of data set [1]: after oral administration, background statement.
Test in data set [2]: not given
This is another data set of the same source.

Structures can show the parent of a compound that is named as a salt.

Turning to `CNC1(c2ccccc2Cl)CCCCC1=O` (racemic) [ketamine, (R,S)—2-(2-chlorophenyl)-2-(methylamino) cyclohexanone], in data set [1], the elimination half-life is 2 to 3 h. Further, for the setting “exceeding it leads to more pronounced side effects”, the “optimal efficacy plasma concentration” value was 10 to 300 ng/mL. Moreover, the “blood concentration level above which side effects may become more pronounced” value (in vivo) is “above 300 ng/L”. For the compound `NC1(c2ccccc2Cl)CCCCC1=O` (racemic) [norketamine, (R,S)—2-(2-chlorophenyl)-2-(amino) cyclohexanone], the elimination half-life in data set [1] is 4 h. Regarding `CNC1(c2ccccc2Cl)CCCCC1=O` (centres unmarked) [ketamine hydrochloride], the solubility in water result in data set [2] is “about 200 mg/ml”.
